Laboratory results reported in the supplement of paper PMC8967900.

Tests used:
Experiment in all cases: selective drug sensitivity score (sDSS, relative to normal bone marrow) (sDSS (score)); higher = more potent and effective on the cell line relative to normal bone marrow cells
Settings in all cases: 72 h
[1] = system: CCRF-CEM
[2] = system: 697
[3] = system: MHH-CALL-4
[4] = system: MOLT-16
[5] = system: RPMI-8402
[6] = system: COG-LL-402h
[7] = system: REH
[8] = system: KARPAS-45
[9] = system: SUP-B15
[10] = system: PF-382
[11] = system: MHH-CALL-2
[12] = system: NALM-16
[13] = system: TMD5
[14] = system: PEER
[15] = system: NALM-6
[16] = system: KOPN-8
[17] = system: COG-LL-332h
[18] = system: COG-LL-317
[19] = system: MOLT-4
[20] = system: ALL-PO
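Further: ALL cell lines in 384-well plates, five doses spanning 10,000-fold, each plate scaled between vehicle and 100 µmol/L benzalkonium chloride controls, sDSS an adapted area-under-curve metric.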

Row | SMILES | selective drug sensitivity score [1] | selective drug sensitivity score [2] | selective drug sensitivity score [3] | selective drug sensitivity score [4] | selective drug sensitivity score [5] | selective drug sensitivity score [6] | selective drug sensitivity score [7] | selective drug sensitivity score [8] | selective drug sensitivity score [9] | selective drug sensitivity score [10] | selective drug sensitivity score [11] | selective drug sensitivity score [12] | selective drug sensitivity score [13] | selective drug sensitivity score [14] | selective drug sensitivity score [15] | selective drug sensitivity score [16] | selective drug sensitivity score [17] | selective drug sensitivity score [18] | selective drug sensitivity score [19] | selective drug sensitivity score [20]
1 | CNS(=O)(=O)Nc1nccc(Cc2c(C)c3ccc(Oc4ncccn4)cc3oc2=O)c1F (top concentration 1000 nM) | -1.18 | 0.02 | 1.02 | 1.42 | 0.12 | -1.18 | -0.38 | -0.28 | 10.1 | -0.18 | 1.32 | 0.72 | -1.18 | 0.22 | -0.88 | 2.42 | -1.08 | -1.08 | -1.18 | -1.18
2 | C[C@H]1Oc2cc(cnc2N)-c2c(nn(C)c2C#N)CN(C)C(=O)c2ccc(F)cc21 (top concentration 1000 nM) | -0.72 | -0.72 | -0.72 | -0.32 | -0.72 | -0.72 | -0.72 | -0.72 | -0.72 | -0.72 | -0.72 | -0.72 | -0.62 | -0.72 | -0.72 | 11.3 | -0.72 | -0.72 | -0.72 | -0.72
3 | CCc1cncnc1N1CCN(Cc2nc3cc(C(F)(F)F)ccc3[nH]2)CC1 (top concentration 10000 nM) | 0.36 | 4.16 | 5.46 | 4.86 | 5.96 | -0.84 | 6.26 | 2.46 | 3.46 | 2.96 | 5.56 | 0.06 | -0.84 | 4.56 | 1.96 | 8.36 | 1.46 | 1.26 | 2.16 | 3.86
4 | CN(C)CC#Cc1ccc(OCCCc2sc(N3CCc4cccc(C(=O)Nc5nc6ccccc6s5)c4C3)nc2C(=O)O)c(F)c1 (top concentration 10000 nM) | 32.8 | -2.04 | 9.16 | 0.56 | 27.9 | 26.4 | -1.84 | 38.5 | 13.6 | 24.4 | 1.66 | -1.24 | -3.64 | 31.8 | 11.3 | 3.46 | 15.7 | 39.8 | 34.8 | 0.46
5 | O=C(NC[C@H](O)CN1CCc2ccccc2C1)c1cc(NC2COC2)ncn1 (top concentration 10000 nM) | -0.06 | 0.84 | -0.06 | 1.54 | -0.06 | 0.34 | -0.06 | 0.04 | 1.54 | -0.06 | 0.04 | -0.06 | -0.06 | -0.06 | -0.06 | -0.06 | 1.54 | 10.6 | 2.74 | -0.06
6 | O=C1Cc2cc(C(=O)NC3C[C@H]4CC[C@@H](C3)N4S(=O)(=O)CC3CCN(CCCC(F)(F)F)CC3)c(Cl)cc2N1 (stereo not given in full) (top concentration 10000 nM) | 0 | 0 | 0 | 0 | 0 | 0 | 3.5 | 0 | 0 | 0 | 0 | 0 | 2.6 | 0 | 0 | 0 | 0 | 0 | 0 | 0
7 | CC/C(=C(\c1ccc(O)cc1)c1ccc(OCCN(C)C)cc1)c1ccccc1 [4-hydroxytamoxifen] (top concentration 10000 nM) | 1.52 | 1.32 | 0.42 | 3.02 | 2.62 | -3.48 | 4.02 | 1.52 | 0.92 | 2.52 | 2.12 | -2.88 | -1.78 | 2.32 | 0.02 | 3.22 | 0.82 | 0.62 | 0.62 | 3.12
8 | COCC1(CO)C(=O)C2CCN1CC2 (stereo not given) [APR-246] (top concentration 10000 nM) | -0.86 | 0.24 | 0.64 | 1.04 | -1.16 | -1.16 | -1.16 | -1.16 | 0.44 | -1.16 | 6.84 | 2.44 | -1.16 | -1.16 | 1.14 | 0.54 | -0.56 | -1.16 | -1.16 | -1.16
9 | Cc1sc2c(c1C)C(c1ccc(Cl)cc1)=N[C@@H](CC(=O)Nc1ccc(OCCOCCOCCOCCNc3cccc4c3C(=O)N(C3CCC(=O)NC3=O)C4=O)cc1)c1nnc(C)n1-2 (stereo not given in full) [ARV-825] (top concentration 300 nM) | -2.66 | 3.14 | 7.54 | 1.44 | 1.04 | 3.74 | -0.26 | -8.06 | 6.14 | 0.14 | 4.94 | 0.74 | 0.14 | -0.46 | 1.24 | 4.14 | -1.46 | -0.26 | -10.4 | 2.34
10 | COc1cc(OC2CCN(C)CC2)ccc1Nc1ncc2c(n1)n(C1CCCC1)c(=O)n2C [AZ3146] (top concentration 10000 nM) | 0.94 | 1.04 | 0.64 | 0.44 | 1.94 | -0.56 | 1.14 | 0.94 | 1.34 | -0.86 | 1.94 | -2.56 | -4.06 | 2.54 | 3.04 | 4.54 | 1.34 | 0.74 | 1.84 | 3.44
11 | CN(C)CCCOc1ccc(-c2ccc3ncc4c(c3c2)n(C2CCOCC2)c(=O)n4C)cn1 [AZD0156] (top concentration 1000 nM) | 1.74 | 1.04 | 1.54 | 0.54 | 0.14 | 3.34 | 0.84 | 0.14 | 1.14 | 0.64 | 1.84 | -0.06 | -0.06 | -0.06 | -0.06 | 2.04 | 0.64 | -0.06 | -0.06 | 2.24
12 | N#Cc1ccc2[nH]c(O)c(-c3ccc(CN4CCOCC4)cn3)c2c1 [AZD-1080] (top concentration 10000 nM) | -0.02 | 4.38 | -0.02 | 0.38 | -0.02 | 2.08 | 8.28 | -0.02 | 5.08 | -0.02 | -0.02 | 0.48 | -0.02 | -0.02 | 1.78 | 4.28 | -0.02 | 3.38 | -0.02 | 2.18
13 | CN(C)C/C=C/C(=O)Nc1cc2c(Nc3ccc(F)c(Cl)c3)ncnc2cc1O[C@H]1CCOC1 [Afatinib] (top concentration 1000 nM) | 0.66 | -0.34 | -0.84 | -0.34 | -0.84 | 0.46 | 5.46 | 1.06 | -0.84 | -0.84 | 0.16 | -0.84 | 3.56 | 0.66 | -0.84 | -0.74 | -0.84 | -0.84 | -0.84 | -0.64
14 | O=C(Nc1ccc(OC(F)(F)Cl)cc1)c1cnc(N2CC[C@@H](O)C2)c(-c2cc[nH]n2)c1 [Asciminib] (top concentration 1000 nM) | -1.98 | -1.18 | 7.12 | 8.42 | -1.98 | -1.98 | -1.98 | -1.98 | 26.2 | -1.78 | -1.98 | -1.98 | 13.6 | 16.2 | 0.42 | 11.4 | 5.62 | -0.88 | 1.12 | -0.28
15 | CC[C@@H]1C(=O)N(C)c2cnc(Nc3ccc(C(=O)NC4CCN(C)CC4)cc3OC)nc2N1C1CCCC1 [BI-2536] (top concentration 1000 nM) | 20.1 | 17.4 | 6.94 | 9.04 | 22.4 | 17.2 | 16.4 | 21.3 | 22.9 | 18.7 | 16.2 | 14.5 | 10.4 | 20.8 | 13.4 | 17 | 17.4 | 21.2 | 19.6 | 15.9
16 | Cc1ccc(NC(=O)c2ccc(CN3CC[C@H](N(C)C)C3)c(C(F)(F)F)c2)cc1Nc1nccc(-c2cncnc2)n1 [Bafetinib] (top concentration 1000 nM) | 0 | 0 | 0 | 0 | 0 | 0.5 | 0.2 | 0 | 21.9 | 0 | 0 | 0 | 9.1 | 15.4 | 0 | 3.1 | 12.3 | 0 | 0 | 0
17 | CC[C@H](NC(=O)[C@H](C)NC)C(=O)N1C[C@@H](O)C[C@H]1Cc1c(-c2[nH]c3cc(F)ccc3c2C[C@@H]2C[C@H](O)CN2C(=O)[C@H](CC)NC(=O)[C@H](C)NC)[nH]c2cc(F)ccc12 [Birinapant] (top concentration 1000 nM) | 1.4 | -5.1 | 7.5 | -1.7 | -3.2 | -5.1 | 1.1 | -5.1 | -3.7 | -4.6 | 8.7 | 0.5 | -0.1 | -4.4 | -4.2 | -5.1 | 9.6 | -5 | -5.1 | -1.9
18 | COc1cc2nccc(Oc3ccc(NC(=O)C4(C(=O)Nc5ccc(F)cc5)CC4)cc3)c2cc1OC [Cabozantinib] (top concentration 1000 nM) | -3.62 | -1.42 | 3.78 | -3.62 | -1.62 | -3.62 | 4.58 | -2.42 | 13.5 | -3.62 | -3.62 | 2.68 | -3.62 | 2.08 | -2.82 | 24.9 | -0.12 | -3.62 | -0.92 | 10.4
